Where two headings read alike, the source gives them in different places.
Tests used:
[1] = log POW, n-octanol/water partition coefficient, OECD Test No. 117; assay type: physicochemical
Experimental: The partition coefficient between n-octanol and water, also called ‘log POW’ and performed according to OECD Test No. 117 at 25° C., of 1,2-octanediol is 2.1. […] A specialist trained in the art could therefore expect that a mixture of water, 1,2-octanediol and hydrophilic short chain alkanediols and/or alkanetriols would form a hydrophilic phase containing water, and a separate lipophilic phase containing 1,2-octanediol.
The miscibility of 1,2-octanediol with C3-C4 alkanediols is well-known. However, comparably large amounts of these diols are needed for lowering the melting point of 1,2-octanediol below 15° C. Furthermore, C3-C4 polyols are highly hydrophilic components with a log POW of ≤0, as detailed in the following table (Table 1).

[2] = Solubility in 1,2-octanediol; assay type: physicochemical
Experimental: The solubility of water in 1,2-octanediol exceeds 30% at 40° C. However, mixtures of 1,2-octanediol with water tend to form highly viscous gels at ambient temperature which are hard to handle.
Glycerol, with glycerine and 1,2,3-trihydroxypropane as well-known alternative names, is a C3 alkanetriol. The solubility of glycerol in 1,2-octanediol exceeds 30%. However, mixtures of 1,2-octanediol and glycerol tend to be highly viscous and might separate at low temperatures. Furthermore, the addition of high amounts of glycerol to skin care formulations may cause a sticky skin-feel.

Row | Compound | log POW (25° C.) [1] | solubility of glycerol in 1,2-octanediol [2] | log POW (25° C.) ([1]; OECD Test No. 117 at 25° C.)
1 | OCC(O)CO [1,2,3-trihydroxypropane] | −1.75 | exceeds 30% | –
2 | CCC(O)CO (stereo not shown) [1,2-butanediol] | – | – | −0.59
3 | CCCCCCC(O)CO (stereo not shown) [1,2-octanediol] | – | – | 2.1
4 | CC(O)CO (stereo not shown) [1,2-propanediol] | 1.07 | – | –
5 | CC(O)CCO (stereo not shown) [1,3-butanediol] | – | – | −0.92
6 | OCCCO [1,3-propanediol] | – | – | 0.71
7 | OCCCCO [1,4-butanediol] | −0.88 | – | –
8 | CC(O)C(C)O (stereo not shown) [2,3-butanediol] | −0.92 | – | –
9 | CC(CO)CO [2-methyl-1,3-propanediol] | – | – | −0.6
